Data taken from patent US20240165151A1, “COMPOSITIONS AND METHODS FOR TREATING UPPER RESPIRATORY INFECTIONS” (priority 2020, published 2024).
Where two headings read alike, the source gives them in different places. Marks after values point to notes of the source that are not given here.

What was measured:
[1] = test system: SARS-CoV-2; type: cell-based; details: for Virus CCID50 per well ± SD: 22±2°C, average of 3 replicates; for LRV (log reduction value): compared to the virus control
[2] = test system: Vero 76 cells
[3] = test system: influenza virus; details: cited from earlier work
[4] = test system: SARS-CoV-2; details: cited from earlier work

Compound: CCO [EtOH (63%), Ethanol]
- Virus CCID50 per well ± SD ([1]; contact time 2 minutes): <1.7**** log CCID50 per 0.1 mL
- LRV (log reduction value) ([1]; contact time 2 minutes): >2.2 log10
- Virus CCID50 per well ± SD ([1]; contact time 10 minutes): <1.7**** log CCID50 per 0.1 mL
- LRV (log reduction value) ([1]; contact time 10 minutes): >2.2 log10
- cytotoxicity in culture [2]: cytotoxic

Compound: CCOC(=O)C1=C[C@@H](OC(CC)CC)[C@H](NC(C)=O)[C@@H](N)C1 [Oseltamivir]
- influenza RNA concentration decrease ([3]; on day 2): −1.19 log10 copies/mL
- influenza RNA concentration decrease ([3]; on day 4): −0.68 log10 copies/mL

Compound: LY-CoV555: SARS-CoV-2 neutralizing antibody
- relative SARS-CoV-2 RNA decrease versus placebo ([4]; day 3): −0.64 log10 copies/mL
- relative SARS-CoV-2 RNA decrease versus placebo ([4]; day 7): −0.45 log10 copies/mL
